Assay results from patent US20160051560A1, “TREATMENTS INVOLVING ESLICARBAZEPINE OR ESLICARBAZEPINE ACETATE” (BIAL - PORTELA & Cª, S.A., priority 2013, published 2016).

Test system: patients with acute manic (including mixed) episode, bipolar I disorder
Test: Study BIA-2093-204: 3-week double-blind, randomised, placebo-controlled, fixed multiple dose study in acute mania
Format: in vivo, human
Conditions: for YMRS score absolute change from V2 (1 Day) to V7 (21 Days), Mean ± SD / YMRS score absolute change from V2 (1 Day) to V7 (21 Days), Median (range): ITT
Description: Two 3-week multicentre, double-blind, randomised, placebo-controlled studies in acute mania (study BIA-2093-203: dose titrated by response, eslicarbazepine acetate (ESL) 600-1800 mg or 800-2400 mg, once-daily; study BIA-2093-204: fixed doses of 600, 1200 and 1800 mg, once-daily) were followed by a recurrence prevention study consisting of a 2-week open-label period (900 mg, once-daily) continued by a double-blind, parallel-group, fixed dose (300, 900 and 1800 mg, once-daily) period for a minimum of 6 months. The primary endpoint was change in Young Mania Rating Scale (YMRS) in studies BIA-2093-203 and BIA-2093-204, and the proportion of no worsening patients in the Clinical Global Impressions-Bipolar Version (CGI-BP) in study BIA-2093-205.
Study BIA-2093-204 (EudraCT No 2005-002133-13) followed a multicentre, double-blind, randomised, parallel-group, placebo-controlled, fixed multiple dose design. This study was conducted at 25 study centres in Europe, South Africa and South America. Patients were randomised (1:1:1:1) to one of the following treatment groups: (1) ESL 1800 mg QD, (2) ESL 1200 mg QD, (3) ESL 600 mg QD, and (4) Placebo QD. The visit schedule in study BIA-2093-204 was similar to that of study BIA-2093-203. […] Patients also had the option of entering Study BIA-2093-205.
Studies BIA-2093-203 and BIA-2093-204 enrolled patients with ages ≧18 years, currently displaying an acute manic (including mixed) episode and with a documented diagnosis of bipolar I disorder according to the DSM-IV criteria (2). Eligible patients should have a Young Mania Rating Scale (YMRS) total score ≧20, with symptoms of the current manic episode starting within two weeks prior to randomization. Patients were excluded if they had history of schizophrenia or schizoaffective disorder, psychotic features or rapid cycling. Patients were also excluded if they were treated with carbamazepine, oxcarbazepine or a depot-neuroleptic. Previous treatment with ESL or history of unresponsiveness, intolerance or hypersensitivity to other dibenzazepine compounds (carbamazepine, oxcarbazepine or licarbazepine) also constituted criteria for exclusion. Patients with clinical relevant risk of harm to self or others and history of substance abuse were also excluded. Women were excluded if they were pregnant or breast-feeding, or if of childbearing potential they were unable to use double-barrier contraception.
The following validated instruments were used: YMRS (20), the Clinical Global Impressions-Bipolar Version (CGI-BP) scale (21) and the Montgomery-Åsberg Depression Rating Scale (MADRS) (22). The YMRS score is the sum of 11 scoring items, ranging from 0 to 60 points; higher scores indicate higher mania symptomatology (20). The CGI-BP scale measures severity and treatment-related improvement in mania, depression and overall illness categories. It comprises 3 scales: severity of illness (1—normal to 7—very severely ill, in which 3—mildly ill was used as cut-off value for statistical analysis), change from preceding phase and worst phase (1—very much improved to 7—very much worse, and 8—not applicable) (21). The MADRS score is calculated as the sum of the 10 scoring items, ranging from 0 to 60 points: higher scores indicate higher depression symptomatology (22).
The primary efficacy endpoint for acute mania studies (BIA-2093-203 and BIA-2093-204) was the change in YMRS total score from baseline until the end of the 3-week treatment period. Investigators administered the YMRS at each visit. Secondary efficacy variables based on the YMRS score included responder rate (proportion of patients with ≧50% improvement or <12 points in the YMRS score), change in YMRS total score for each visit, proportion of patients in full remission (YMRS score <12), and time to full remission. The investigators completed CGI-BP in all visits and the test scores in the different categories were considered as secondary endpoints. […]

[1] = ESL 1200 mg, n = 9, only study 204
[2] = ESL 1800 mg, n = 10, only study 204

In the case of CC(=O)O[C@H]1Cc2ccccc2N(C(N)=O)c2ccccc21 [ESL, (S)-10-acetoxy-10,11-dihydro-5H-dibenz[b,f]azepine-5-carboxamide], the “YMRS score absolute change from V2 (1 Day) to V7 (21 Days), Mean ± SD” value (“YMRS score absolute change from V2 … Mean ± SD” below) (ESL 600 mg QD, n = 8) is reported as −16.9 ± 2.8, the “YMRS score absolute change from V2 (1 Day) to V7 (21 Days), Median (range)” value (“YMRS score absolute change from V2 … (range)” below) (ESL 600 mg QD, n = 8) is reported as −17.5 (−20.0, −12.0) and the “YMRS score absolute change from V2 … Mean ± SD” value (ESL 1200 mg QD, n = 9) is reported as −16.7 ± 9.1. For the same molecule, the “YMRS score absolute change from V2 … (range)” value (ESL 1200 mg QD, n = 9) was −15.0 (−35.0, −4.0), the “Any Adverse Events” value [1] was 9 (100.0) Number (%) of patients and the Diarrhoea [1] was 0 (0.0) Number (%) of patients. For the same molecule, the Dizziness [1] was 2 (22.2) Number (%) of patients, the Headache [1] was 5 (55.6) Number (%) of patients and the Nausea [1] was 1 (11.1) Number (%) of patients. For the same molecule, the Paraesthesia oral [1] was 1 (11.1) Number (%) of patients, the Somnolence [1] was 1 (11.1) Number (%) of patients and the Vomiting [1] was 2 (22.2) Number (%) of patients. For the same molecule, the “YMRS score absolute change from V2 … Mean ± SD” value (ESL 1800 mg QD, n = 9) was −11.3 ± 10.9, the “YMRS score absolute change from V2 … (range)” value (ESL 1800 mg QD, n = 9) was −15.0 (−26.0, 7.0) and the “mean change in YMRS total scores from screening to V7” value (ESL 1800 mg group) was −11.3. For the same molecule, the “patients in full remission at the end of the 3-week treatment period” value (ESL 1800 mg group) was 33.3%, the “Any Adverse Events” value [2] was 10 (100.0) Number (%) of patients and the Diarrhoea [2] was 0 (0.0) Number (%) of patients. For the same molecule, the Dizziness [2] was 4 (40.0) Number (%) of patients, the Headache [2] was 1 (10.0) Number (%) of patients and the Nausea [2] was 3 (30.0) Number (%) of patients. The Paraesthesia oral [2] was 2 (20.0) Number (%) of patients, the Somnolence [2] was 3 (30.0) Number (%) of patients and the Vomiting [2] was 2 (20.0) Number (%) of patients.
